The IC50 is the point on the concentration scale where inhibition reaches its midpoint.

Calls of active or inactive are those of the source. No cut-off for these calls is given here.

From ChEMBL document CHEMBL4665719, “Development of SKI-349, a dual-targeted inhibitor of sphingosine kinase and microtubule polymerization” (Bioorg Med Chem Lett, 2020) come the findings set out here.

Data set [1] addresses T1, Sphingosine kinase 1/2 (Homo sapiens) (UniProt Q9NRA0+Q9NYA1). Put plainly: Inhibition of SPHK1/SPHK2 in human HL-60 cells assessed as C18:0 ceramide level assessed per 10^6 cells at 500 nM after 24 hrs by LC-ESI/MS analysis (reference value: 1.6 +/- 0.2 pmol). In kind it is cell-based.
The nature of data set [2]: Cytotoxicity against human HL60/VCR cells assessed as reduction in cell viability after 48 hrs by MTT assay. Type of data set: functional, cell-based. (In general: Tetrazolium dyes change colour on reduction, which living cells bring about.)
Data set [3] has as its target Non-receptor tyrosine-protein kinase TYK2 (Homo sapiens) (UniProt P29597). Put plainly: Inhibition of wild-type human partial length TYK2 JH2 pseudokinase domain (G556 to D888 residues) expressed in mammalian expression system assessed as residual activity at 1 uM by Kinomescan method relative to control.
The nature of data set [4]: Toxicity in sub-lethal irradiated C57BL/6J mouse xenografted with […] MLL-AF9 cells assessed as HCT level at 1 mg/kg measured after 2 weeks (reference value: 45 +/- 1.4 %). Type of data set: organism-based. The note with it: in vivo, 336 h. (A xenograft is tissue or cells of one species grown in another, often human tumour cells in immunodeficient mice.)
Data set [5] is described as follows: Effect on hematopoiesis in sub-lethal irradiated C57BL/6J mouse xenografted with […] MLL-AF9 cells assessed as CD45.1+/CD34 cells in spleen at 1 mg/kg measured after 6 weeks by flow cytometry analysis (reference value: 90 %). The note with it: in vivo, 1008 h. In kind it is ADME, organism-based.
Data set [6] in a line: Toxicity in sub-lethal irradiated C57BL/6J mouse xenografted with […] MLL-AF9 cells assessed as Hb level at 1 mg/kg measured after 2 weeks (reference value: 13.4 +/- 0.5 g/dl). Type of data set: organism-based. To be noted: in vivo, 336 h.
Data set [7] is described as follows: Antitumor activity against human MLL-AF9 xenografted in sub-lethal irradiated C57BL/6J mouse assessed as increase in mouse survival at 1 mg/kg administered every day relative to control. To be noted: MLL-AF9, light or radiation study. Type of data set: functional.
The target in data set [8] is Cyclin-dependent kinase 1 (Homo sapiens) (UniProt P06493). Put plainly: Activation of CDK1 in human HL-60 cells assessed as induction of Bcl2 phosphorylation at Ser70 residue at 300 nM after 24 hrs by Western blot analysis. In kind it is cell-based. To be noted: filed as activator. Background: In western blotting, separated proteins are transferred to a membrane and probed.
Sequence of Cyclin-dependent kinase 1 (Homo sapiens) (P06493 whole entry, looked up): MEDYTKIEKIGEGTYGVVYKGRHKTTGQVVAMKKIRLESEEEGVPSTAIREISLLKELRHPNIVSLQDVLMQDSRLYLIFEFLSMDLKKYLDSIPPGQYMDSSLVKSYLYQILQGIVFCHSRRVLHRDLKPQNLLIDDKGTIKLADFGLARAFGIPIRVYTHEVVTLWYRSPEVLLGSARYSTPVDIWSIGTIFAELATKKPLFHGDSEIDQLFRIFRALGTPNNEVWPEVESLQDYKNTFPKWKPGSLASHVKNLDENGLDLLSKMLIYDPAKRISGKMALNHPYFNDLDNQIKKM

Data set [9] in a line: Toxicity in sub-lethal irradiated C57BL/6J mouse xenografted with […] MLL-AF9 cells assessed as RBC level at 5 mg/kg measured after 2 weeks (reference value: 9.8 +/- 0.3 10^6/ml). Type of data set: organism-based. The note with it: in vivo, 336 h.
The target of data set [10] is T2, Sphingosine kinase 2 (Homo sapiens) (UniProt Q9NRA0).
T2 sequence (whole entry): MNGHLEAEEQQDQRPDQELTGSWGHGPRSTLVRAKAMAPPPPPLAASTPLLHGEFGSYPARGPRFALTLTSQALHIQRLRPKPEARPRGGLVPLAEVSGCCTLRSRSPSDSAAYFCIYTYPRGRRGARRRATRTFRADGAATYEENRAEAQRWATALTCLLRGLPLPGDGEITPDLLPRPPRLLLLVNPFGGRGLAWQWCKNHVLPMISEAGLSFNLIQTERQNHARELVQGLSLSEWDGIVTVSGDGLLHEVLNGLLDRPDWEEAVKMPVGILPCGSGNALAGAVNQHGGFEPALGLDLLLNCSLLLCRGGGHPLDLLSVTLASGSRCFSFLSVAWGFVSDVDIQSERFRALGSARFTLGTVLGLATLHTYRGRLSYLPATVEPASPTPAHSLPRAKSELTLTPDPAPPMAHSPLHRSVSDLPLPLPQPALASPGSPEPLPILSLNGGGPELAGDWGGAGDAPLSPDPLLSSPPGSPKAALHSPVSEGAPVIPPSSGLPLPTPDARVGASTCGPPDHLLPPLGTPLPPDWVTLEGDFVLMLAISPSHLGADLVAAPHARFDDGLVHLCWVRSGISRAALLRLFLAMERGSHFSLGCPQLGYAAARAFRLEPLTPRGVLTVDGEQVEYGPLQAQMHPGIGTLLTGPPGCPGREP
In words: Inhibition of SphK2 (unknown origin) catalytic activity at 2 to 5 uM. The note with it: dose microM 2-5.

The nature of data set [11]: Effect on hematopoiesis in sub-lethal irradiated C57BL/6J mouse xenografted with […] MLL-AF9 cells assessed as CD45.1+/CD34 cells in spleen at 2.5 mg/kg measured after 6 weeks by flow cytometry analysis (reference value: 90 %). Type of data set: ADME, organism-based. The note with it: in vivo, 1008 h.
The next data set has as its target Tubulin beta. In words: Binding affinity to beta tubulin in HEK293 cells assessed as disruption of microtubule polymerization by ITDRF-CETSA assay. Type of data set: cell-based, Homo sapiens.
Another data set concerns the target Sphingosine kinase 1 (Homo sapiens, UniProt Q9NYA1). In words: Binding affinity to SphK1 in HEK293 cells assessed as direct target engagement incubated for 24 hrs followed by thermal denaturation at 61 degreeC by ITDRF-CETSA assay. Type of data set: cell-based.
For data set [12], the target named is T1, Sphingosine kinase 1/2 (Homo sapiens). Put plainly: Inhibition of SPHK1/SPHK2 in human HL-60 cells assessed as sphingosine-1-phosphate level assessed per 10^6 cells at 500 nM after 24 hrs by LC-ESI/MS analysis (reference value: 3.1 +/- 0.3 pmol). Type of data set: cell-based.
The nature of data set [13]: Toxicity in sub-lethal irradiated C57BL/6J mouse xenografted with […] MLL-AF9 cells assessed as platelet level at 1 mg/kg measured after 2 weeks (reference value: 687 +/- 53 10^3/ml). To be noted: in vivo, 336 h. Type of data set: organism-based.
Data set [14] is described as follows: Effect on hematopoiesis in sub-lethal irradiated C57BL/6J mouse xenografted with […] MLL-AF9 cells assessed as CD45.1+/CD34 cells in bone marrow at 1 mg/kg measured after 6 weeks by flow cytometry analysis (reference value: 93 %). Type of data set: ADME, organism-based. The note with it: in vivo, 1008 h.
For data set [15], the target named is Glycogen synthase kinase-3 beta (Homo sapiens) (UniProt P49841). In words: Inhibition of wild-type human full length GSK3B (M1 to T433 residues) expressed in mammalian expression system assessed as residual activity at 1 uM by Kinomescan method relative to control.
Sequence of Glycogen synthase kinase-3 beta (Homo sapiens) (P49841 whole entry, looked up, the tested form may be a part): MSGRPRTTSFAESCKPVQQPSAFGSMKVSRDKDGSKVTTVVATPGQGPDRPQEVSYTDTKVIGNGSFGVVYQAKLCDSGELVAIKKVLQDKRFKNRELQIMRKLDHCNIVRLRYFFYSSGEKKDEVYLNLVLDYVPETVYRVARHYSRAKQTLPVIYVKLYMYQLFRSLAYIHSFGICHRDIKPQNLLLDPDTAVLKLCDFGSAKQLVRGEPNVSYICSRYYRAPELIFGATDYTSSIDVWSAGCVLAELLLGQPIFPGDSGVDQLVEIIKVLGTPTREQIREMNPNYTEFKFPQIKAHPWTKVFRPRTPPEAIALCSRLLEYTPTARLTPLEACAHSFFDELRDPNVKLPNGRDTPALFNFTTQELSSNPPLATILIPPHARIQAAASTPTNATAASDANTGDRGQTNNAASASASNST
Data set [16] is described as follows: Toxicity in sub-lethal irradiated C57BL/6J mouse xenografted with […] MLL-AF9 cells assessed as RBC level at 1 mg/kg measured after 2 weeks (reference value: 9.8 +/- 0.3 10^6/ml). In kind it is organism-based. To be noted: in vivo, 336 h.
The nature of data set [17]: Toxicity in sub-lethal irradiated C57BL/6J mouse xenografted with […] MLL-AF9 cells assessed as HCT level at 5 mg/kg measured after 2 weeks (reference value: 45 +/- 1.4 %). In kind it is organism-based. To be noted: in vivo, 336 h.
In a further data set the test system is MLL-AF9. In words: Antitumor activity against human MLL-AF9 xenografted in sub-lethal irradiated C57BL/6J mouse assessed as increase in mouse survival at 1 to 5 mg/kg administered every day. The note with it: dose mg/kg 1-5. Type of data set: functional, organism-based.
Data set [18] addresses Cyclin-dependent kinase 1 (Homo sapiens) (UniProt P06493). Put plainly: Activation of CDK1 in human HL60/VCR cells assessed as induction of Bcl2 phosphorylation at Ser70 residue at 300 nM after 24 hrs in presence of Ro-3306 by Western blot analysis. Type of data set: cell-based.

T1 sequence (Q9NYA1 whole entry, looked up, one chain of several): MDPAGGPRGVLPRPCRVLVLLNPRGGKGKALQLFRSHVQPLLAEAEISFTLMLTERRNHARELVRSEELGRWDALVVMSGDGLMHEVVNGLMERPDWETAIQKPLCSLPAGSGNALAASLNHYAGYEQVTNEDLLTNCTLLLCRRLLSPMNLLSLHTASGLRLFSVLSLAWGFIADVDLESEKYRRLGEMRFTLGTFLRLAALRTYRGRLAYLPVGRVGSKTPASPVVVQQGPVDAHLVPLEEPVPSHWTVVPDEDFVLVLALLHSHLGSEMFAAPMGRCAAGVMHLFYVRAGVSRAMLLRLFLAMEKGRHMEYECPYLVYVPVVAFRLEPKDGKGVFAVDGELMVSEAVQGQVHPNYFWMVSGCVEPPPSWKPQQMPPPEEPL
Sequence of Non-receptor tyrosine-protein kinase TYK2 (Homo sapiens) (P29597 whole entry, the tested form may be a part): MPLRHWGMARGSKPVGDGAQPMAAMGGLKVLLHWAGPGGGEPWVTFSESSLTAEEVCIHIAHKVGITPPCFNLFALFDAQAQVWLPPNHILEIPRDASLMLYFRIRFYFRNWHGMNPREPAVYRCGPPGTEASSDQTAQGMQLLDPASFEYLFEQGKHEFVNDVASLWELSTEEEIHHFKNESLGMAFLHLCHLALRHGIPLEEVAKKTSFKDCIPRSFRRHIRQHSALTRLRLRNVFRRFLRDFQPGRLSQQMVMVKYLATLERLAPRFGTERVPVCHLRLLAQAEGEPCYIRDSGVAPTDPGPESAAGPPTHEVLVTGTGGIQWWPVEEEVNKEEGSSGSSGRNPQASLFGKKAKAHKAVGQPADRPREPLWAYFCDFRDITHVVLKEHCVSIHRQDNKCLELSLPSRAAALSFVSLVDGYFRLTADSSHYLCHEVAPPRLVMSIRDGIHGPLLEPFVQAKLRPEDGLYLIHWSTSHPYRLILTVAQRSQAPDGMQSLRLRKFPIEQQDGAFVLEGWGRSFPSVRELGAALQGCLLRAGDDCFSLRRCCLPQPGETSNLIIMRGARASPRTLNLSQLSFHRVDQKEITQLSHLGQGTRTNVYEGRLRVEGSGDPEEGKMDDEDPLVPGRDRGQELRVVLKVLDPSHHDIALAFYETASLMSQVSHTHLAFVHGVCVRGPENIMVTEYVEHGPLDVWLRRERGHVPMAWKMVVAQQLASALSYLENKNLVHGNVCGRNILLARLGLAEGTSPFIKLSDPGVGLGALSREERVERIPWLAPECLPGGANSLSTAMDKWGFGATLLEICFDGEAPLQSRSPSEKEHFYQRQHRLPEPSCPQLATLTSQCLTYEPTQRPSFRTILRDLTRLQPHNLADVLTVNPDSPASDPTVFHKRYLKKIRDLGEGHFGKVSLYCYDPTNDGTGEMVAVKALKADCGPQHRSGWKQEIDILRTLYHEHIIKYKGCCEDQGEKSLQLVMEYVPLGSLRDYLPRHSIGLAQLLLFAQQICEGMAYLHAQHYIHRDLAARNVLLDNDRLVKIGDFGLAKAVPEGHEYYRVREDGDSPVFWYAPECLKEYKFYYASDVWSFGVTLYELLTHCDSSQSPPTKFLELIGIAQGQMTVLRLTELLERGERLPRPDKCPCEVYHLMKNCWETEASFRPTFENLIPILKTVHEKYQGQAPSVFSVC
Sequence of Sphingosine kinase 1 (Q9NYA1 whole entry): as the sequence (Q9NYA1 whole entry, looked up, one chain of several) above

As for `COc1ccc(Nc2nc(N)c(C(=O)c3ccc(OC)c(OC)c3)s2)cc1`, the Activity in data set [1] is 4.7 pmol; in data set [3], 14%; in data set [4], 44%; in [5] it was 8%; in [6] it was 12.8 g/dL; in data set [9], 9 10^6/ml. For the same compound, the Activity is 6% in data set [11]; 2.3 pmol in data set [12]; 1193 10^3/ml in data set [13]; 1% in [14]; 27% in data set [15]; 9.2 10^6/ml in [16]. Moreover, in data set [17], the Activity came out at 41%. The IC50 in data set [2] worked out at 23 nM; at Tubulin beta, 25 nM; on Sphingosine kinase 1, 60 nM. For the same compound, the survival at 1 mg/kg in data set [7] was 100%. In addition, the outcome (in data set [8]; with MLL-AF9) was Active. The inhibition result in data set [10] was “inactive”. For the same compound, the result in data set [18] was inactive.
